According to EP0646375A1, “Method of regulating blood amino acid levels” (CLINTEC NUTRITION COMPANY, priority 1993, dated 1995):
Residues, ends and D or L forms follow the SMILES beside them.

Experiments:
in vivo = conditions: male, Sprague Dawley, rat, iv
Procedure: (§1) Experiments were performed on mature male Sprague Dawley rats (see Table II for weights). Prior to the experiments the animals were maintained on standard rat chow (Doust and Rabbidge, Sydney, Australia) and tap water. The animals were starved for 15-18h and then anaesthetized by peritoneal injection with Nembutal (Boehringer Ingelheim, Sydney, Australia) (4mg/kg Body Weight (B.W.) pentobarbitone). The internal jugular veins were exposed by blunt dissection and a small gauge silicone catheter (Dow Corning, Sydney, Australia) was introduced and secured with 5-0 silk sutures. Both internal jugular veins were catheterized; the left for dipeptide injection and the right for blood sampling. After insertion, the catheters were kept patent and with occasional flushes (0.2-0.5ml) of heparinized (10U/ml) isotonic saline.
(§2) All dipeptides were proven by to be >98% pure. […] Dipeptides were dissolved in 80mM sodium phosphate buffer, Ph 7.0, made isotonic with sodium chloride and filtered through a 0.2µm membrane filter (Millipore, Sydney, Australia).
(§3) Following an initial baseline blood sample (0.15-0.2ml) a bolus injection of dipeptide (0.2ml, see Table 1 for doses) was administered into the left catheter. Rapid blood samples were taken in the first 5 minutes and then at 10, 20 and 30 minutes following injection. Heparinized (10U/ml) isotonic saline (0.5ml) was injected into the sample catheter after the 5, 10 and 20 minute blood samples to maintain patency of the catheter. At each time point two blood samples were taken: the first, 0.1ml in volume, to remove traces of heparinized saline and blood from the catheter and the second, 0.15-ml in volume, for dipeptide and amino acid determination. One hour after injection of the dipeptide the bladder was exposed and urine was collected with a small gauge hypodermic needle.
(§4) Immediately following collection the blood (0.15-ml) and urine (0.5ml) samples were transferred to pre-weighed stoppered tubes containing 0.6ml of ice-cold 4% (w/v) sulfosalicylic acid. The samples were shaken vigorously and placed on ice for 10 minutes to allow complete deproteinization. The sample tubes were weighed and then centrifuged (bench-top, 1200 x g) for 10 minutes at 2-4°C. The resulting supernatant was filtered (0.45µm membrane, Millipore, Sydney, Australia) and stored at - 80°C. The volume of blood added to the tubes was determined by weight assuming a blood density of 1.06g/ml.
(§5) The concentration of dipeptides and amino acids in the deproteinized samples was determined using a HPLC modification of the standard ion-exchange chromatography, post-column ninhydrin method for physiological amino acids. The column temperature was modified for each dipeptide to produce complete separation of dipeptides and amino acids. The column temperatures were: 70°C for AlaGln, GlyTyr and GlnGly, 60°C for GlyGln, 55°C for GlnAla, and 45°C for AlaTyr.
(§6) Kinetic parameters were calculated for the disappearance of dipeptides, and the amino acids released from the dipeptides using standard equations. In calculating the amino acid clearance the dose was assumed to be that administered as the dipeptide. Baseline amino acid concentrations were subtracted from the amino acid concentrations measured following dipeptide injection to obtain the AUC for amino acids released from the dipeptides. AUC for dipeptides and the constituent amino acids was calculated using the trapezoidal method with extrapolation to infinite time.
(§7) Blood clearance was calculated by dividing the dose of dipeptide by the area under the blood concentration-versus-time curve (AUC). Elimination half-lifes (t½) were estimated from the relationship: t½ = ln2/β, where β is the rate constant for the terminal elimination phase. β was obtained by fitting the concentration-versus-time-curves to a two-compartment model by non-linear least squares regression.

[1] = rat, in vivo
Procedure: as §1, §2, §3, §4, §5, §6, §7

| Structure (SMILES) | clearance (in vivo) | mean Vβ of the dipeptide [1] | mean clearance of glutamine, times greater than glutamine from GlnGly or AlaGln [1] | mean t½ of glutamine, times shorter than glutamine from GlnGly or AlaGln [1] | CLEARANCE OF: Dipeptide ([1]; iv) |
| --- | --- | --- | --- | --- | --- |
| C[C@H](N)C(=O)N[C@@H](CCC(N)=O)C(=O)O [ALA-GLN] (H-Ala-Gln-OH) | 122 mL/min/kg | – | – | – | – |
| C[C@H](N)C(=O)N[C@@H](Cc1ccc(O)cc1)C(=O)O [ALA-TYR] (H-Ala-Tyr-OH) | 155 mL/min/kg | – | – | – | – |
| NCC(=O)N[C@@H](Cc1ccc(O)cc1)C(=O)O [GLY-TYR] (H-Gly-Tyr-OH) | 101 mL/min/kg | 0.06 to 0.07 L/kg | – | – | – |

Further lines, results first:

| clearance (in vivo) | mean Vβ of the dipeptide [1] | mean clearance of glutamine, times greater than glutamine from GlnGly or AlaGln [1] | mean t½ of glutamine, times shorter than glutamine from GlnGly or AlaGln [1] | CLEARANCE OF: Dipeptide ([1]; iv) | Structure (SMILES) |
| --- | --- | --- | --- | --- | --- |
| – | 0.06 to 0.07 L/kg | 4 times | 3 times | 278 mL/min/kg | C[C@H](NC(=O)[C@@H](N)CCC(N)=O)C(=O)O [GLN-ALA] (H-Gln-Ala-OH) |
| 151 mL/min/kg | – | – | – | – | NC(=O)CC[C@H](N)C(=O)NCC(=O)O [GLN-GLY] (H-Gln-Gly-OH) |
| 43 mL/min/kg | 0.06 to 0.07 L/kg | – | – | – | NCC(=O)N[C@@H](CCC(N)=O)C(=O)O [GLY-GLN] (H-Gly-Gln-OH) |
| 187 mL/min/kg | 0.06 to 0.07 L/kg | – | – | – | C[C@H](NC(=O)[C@@H](N)Cc1ccc(O)cc1)C(=O)O [TYR-ALA] |
